Data taken from patent US20170240511A1 (MERCK SHARP & DOHME CORP., priority 2014, published 2017).

These compounds were tested against T1, Human HIF-PHD2 (Homo sapiens, UniProt Q9GZT9) (assay: HIF-PHD2 inhibition assay: time resolved fluorescence detection of HIF peptide hydroxylation). Conditions: FLAG-tagged full length PHD2; 0.2 μM 2-oxoglutarate, 0.5 μM HIF-1α peptide; 45 minutes at room temperature.
T1 construct: FLAG-tagged full length PHD2 expressed in and purified from baculovirus-infected Sf9 cells; FLAG; made in house; host or cells: baculovirus-infected Sf9 cells
T1 sequence (Q9GZT9 whole entry): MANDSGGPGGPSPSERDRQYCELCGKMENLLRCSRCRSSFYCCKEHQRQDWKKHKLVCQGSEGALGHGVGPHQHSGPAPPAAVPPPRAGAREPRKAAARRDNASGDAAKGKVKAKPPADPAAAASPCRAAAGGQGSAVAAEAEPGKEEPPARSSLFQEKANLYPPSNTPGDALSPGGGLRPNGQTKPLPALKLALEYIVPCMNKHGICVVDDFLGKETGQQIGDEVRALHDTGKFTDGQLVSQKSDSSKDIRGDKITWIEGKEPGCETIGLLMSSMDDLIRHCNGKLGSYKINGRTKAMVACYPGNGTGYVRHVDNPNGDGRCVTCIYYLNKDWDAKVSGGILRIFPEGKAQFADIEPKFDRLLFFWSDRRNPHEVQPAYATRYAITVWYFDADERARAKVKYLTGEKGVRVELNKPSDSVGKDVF
Assay type: biochemical
Method: To each well of a 384-well plate, 1 μL of test compounds in DMSO (final concentration ranging from 0.3 nM to 10 μM) were added into 20 μl of assay buffer (50 mM Tris pH 7.4/0.01% Tween-20/0.1 mg/ml bovine serum albumin/10 μM ferrous sulfate/1 mM sodium ascorbate/20 μg/ml catalase) containing 0.15 μg/ml FLAG-tagged full length PHD2 expressed in and purified from baculovirus-infected Sf9 cells. After a 5 min preincubation at room temperature, the enzymatic reactions were initiated by the addition of 4 μL of substrates final concentrations of 0.2 μM 2-oxoglutarate and 0.5 μM HIF-la peptide biotinyl-[…] […] After incubation for 45 minutes at room temperature, the reactions were terminated by the addition of a 25 μL quench/detection mix to a final concentration of 1 mM ortho-phenanthroline, 0.1 mM EDTA, 0.5 nM anti-(His)6 LANCE reagent (Perkin-Elmer Life Sciences), 100 nM AF647-labeled streptavidin (Invitrogen), and 2 μg/ml (His)6-VHL complex {S. Tan Protein Expr. Purif. […] Inhibition of the catalytic activity of HIF-PHD1 and HIF-PHD3 can be determined similarly, except for HIF-PHD3, final concentrations of 4 μM 2-oxoglutarate is used during the reaction.

SMILES	IC50
CC(C)(CNC(=O)c1cc(O)c(C(=O)NC(c2ccccc2)c2ccccc2)cn1)C(=O)O [Example 14, 3-(5-(benzhydrylcarbamoyl)-4-hydroxypicolinamido)-2,2-dimethylpropanoic acid]	3.61 nM
CC(CNC(=O)c1cc(O)c(C(=O)NC(c2ccccc2)c2ccccc2)cn1)C(=O)O (stereo not shown) [Example 10, 3-(5-(benzhydrylcarbamoyl)-4-hydroxypicolinamido)-2-methylpropanoic acid]	1.89 nM
COC(=O)C(C)CNC(=O)c1cc(O)c(C(=O)NC(c2ccccc2)c2ccccc2)cn1 (stereo not shown) [Example 3, methyl 3-(5-(benzhydrylcarbamoyl)-4-hydroxypicolinamido)-2-methylpropanoate]	136 nM
CCOC(=O)CCNC(=O)c1cc(O)c(C(=O)NC(c2ccccc2)c2ccccc2)cn1 [Example 2, ethyl 3-(5-(benzhydrylcarbamoyl)-4-hydroxypicolinamido)propanoate]	92.9 nM
CCOC(=O)[C@H]1C[C@@H]1NC(=O)c1cc(O)c(C(=O)NC(c2ccccc2)c2ccccc2)cn1 [Example 6, (1S,2S)-ethyl 2-(5-(benzhydrylcarbamoyl)-4-hydroxypicolinamido)cyclopropanecarboxylate]	89.1 nM
O=C(NC12CC(C(=O)O)(C1)C2)c1cc(O)c(C(=O)NC(c2ccccc2)c2ccccc2)cn1 [Example 17, 3-(5-(benzhydrylcarbamoyl)-4-hydroxypicolinamido)bicyclo[1.1.1]pentane-1-carboxylic acid]	23.4 nM
O=C(NCC(O)C(=O)O)c1cc(O)c(C(=O)NC(c2ccccc2)c2ccccc2)cn1 (stereo not shown) [Example 13, 3-(5-(benzhydrylcarbamoyl)-4-hydroxypicolinamido)-2-hydroxypropanoic acid]	1.28 nM
CCOC(=O)[C@@H]1C[C@H]1NC(=O)c1cc(O)c(C(=O)NC(c2ccccc2)c2ccccc2)cn1 [Example 7, (1R,2R)-ethyl 2-(5-(benzhydrylcarbamoyl)-4-hydroxypicolinamido)cyclopropanecarboxylate]	37.3 nM
CCOC(=O)C(C)(C)CNC(=O)c1cc(O)c(C(=O)NC(c2ccccc2)c2ccccc2)cn1 [Example 5, ethyl 3-(5-(benzhydrylcarbamoyl)-4-hydroxypicolinamido)-2,2-dimethylpropanoate]	276 nM
O=C(N[C@@H]1C[C@H]1C(=O)O)c1cc(O)c(C(=O)NC(c2ccccc2)c2ccccc2)cn1 [Example 16, (1R,2R)-2-(5-(benzhydrylcarbamoyl)-4-hydroxypicolinamido)cyclopropanecarboxylic acid]	6.55 nM
O=C(O)CCCNC(=O)c1cc(O)c(C(=O)NC(c2ccccc2)c2ccccc2)cn1 [Example 12, 4-(5-(benzhydrylcarbamoyl)-4-hydroxypicolinamido)butanoic acid]	1.02 nM
O=C(NCC1(C(=O)O)CC1)c1cc(O)c(C(=O)NC(c2ccccc2)c2ccccc2)cn1 [Example 11, 1-((5-(benzhydrylcarbamoyl)-4-hydroxypicolinamido)methyl)cyclopropanecarboxylic acid]	5.24 nM
O=C(N[C@H]1C[C@@H]1C(=O)O)c1cc(O)c(C(=O)NC(c2ccccc2)c2ccccc2)cn1 [Example 15, (1S,2S)-2-(5-(benzhydrylcarbamoyl)-4-hydroxypicolinamido)cyclopropanecarboxylic acid]	6.69 nM
O=C(O)c1cnn(-c2cc(O)c(C(=O)NC(c3ccccc3)c3ccccc3)cn2)c1 [Example 1, 1-(5-(Benzhydrylcarbamoyl)-4-hydroxypyridin-2-yl)-1H-pyrazole-4-carboxylic acid]	0.875 nM
O=C(N[C@H]1C[C@H](C(=O)O)C1)c1cc(O)c(C(=O)NC(c2ccccc2)c2ccccc2)cn1 [Example 3]	1.64 nM
CCOC(=O)C1(CNC(=O)c2cc(O)c(C(=O)NC(c3ccc(Cl)cc3)c3ccc(Cl)cc3)cn2)CC1 [Example 5, ethyl 1-((5-((bis(4-chlorophenyl)methyl)carbamoyl)-4-hydroxypicolinamido)methyl) cyclopropanecarboxylate]	184 nM
